For assay [1], the system named is MGC-803. The assay can be described thus: MTT antiproliferative assay, MGC-803. The format is cell-based, human. The note with it: Homo sapiens, MGC-803, 48 h, mean ± SD. The protocol:
(§1) Having evaluated their Topo I inhibitory activity, the antiproliferative activity of the target compounds against some common human cancer cell lines (NCI-H460, A549, ACHN, Cal27 and MGC-803) and one normal cell line (SV-HUC-1) was tested via an MTT assay. TPT, the first Topo I inhibitor approved in clinics, and cisplatin (CDDP), a commonly selected anticancer drug for treating head and neck malignancies, were used as the positive controls.
(§2) Human oral cancer Cal27 cells were seeded in 96-well plates and incubated overnight in 180 μL of medium containing 10% Fetal Bovine Serum (Gibco, San Francisco, CA, USA). […] Then, 10 μL of 5 mg/mL MTT solution was added to each well and incubated at 37 °C for 4 h. After 4 h of incubation at 37 °C, the MTT-containing medium was removed and DMSO was added to each well and the absorbance at 570 nm and 630 nm was measured using a microplate reader (CYTATION 3, Burton, Westwood, NJ, USA). Survival/% = (mean OD of experimental group/mean OD of control group) × 100%. Each test was repeated at least three times.
On the technique in general: Tetrazolium assays rely on reduction of a dye to a coloured formazan, in cell work by metabolically active cells.

Assay [2] relates to NCI-H460. Nature of the assay: MTT antiproliferative assay, NCI-H460. In kind it is cell-based, human. The following applies: Homo sapiens, NCI-H460, 48 h, mean ± SD. The method, then: as §1, §2
Assay [3] has as its system SV-HUC-1. The assay can be described thus: MTT assay, normal cell line SV-HUC-1. In kind it is cell-based. The following applies: SV-HUC1, 48 h, mean ± SD. The protocol: as §1, §2
Assay [4] addresses T1, Topo I (Homo sapiens, UniProt P11387).
T1 sequence (P11387 1-765): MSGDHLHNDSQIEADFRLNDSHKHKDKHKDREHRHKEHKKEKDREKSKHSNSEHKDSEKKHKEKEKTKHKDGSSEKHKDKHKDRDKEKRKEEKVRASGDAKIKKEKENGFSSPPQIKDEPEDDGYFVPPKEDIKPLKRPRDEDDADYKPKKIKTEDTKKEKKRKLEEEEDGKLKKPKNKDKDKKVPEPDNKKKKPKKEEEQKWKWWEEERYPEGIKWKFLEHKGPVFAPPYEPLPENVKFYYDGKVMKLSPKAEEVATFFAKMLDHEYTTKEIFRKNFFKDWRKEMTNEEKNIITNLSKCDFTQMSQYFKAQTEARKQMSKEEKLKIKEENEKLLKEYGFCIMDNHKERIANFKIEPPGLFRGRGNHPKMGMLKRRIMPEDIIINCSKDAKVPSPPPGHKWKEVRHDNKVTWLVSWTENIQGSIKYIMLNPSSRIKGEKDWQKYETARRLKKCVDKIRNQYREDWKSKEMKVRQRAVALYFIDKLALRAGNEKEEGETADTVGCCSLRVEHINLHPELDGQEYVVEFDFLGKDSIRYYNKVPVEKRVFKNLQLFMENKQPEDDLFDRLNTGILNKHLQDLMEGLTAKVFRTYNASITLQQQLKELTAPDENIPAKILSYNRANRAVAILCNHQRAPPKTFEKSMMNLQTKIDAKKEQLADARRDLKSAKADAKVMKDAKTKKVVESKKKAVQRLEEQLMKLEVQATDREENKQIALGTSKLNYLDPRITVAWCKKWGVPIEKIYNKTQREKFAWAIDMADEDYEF
The assay can be described thus: Topo I inhibitory activity, agarose gel electrophoresis (pBR322). The format is biochemical. The following applies: for nicked DNA in the lane (DNA breakage) / Topo I inhibitory activity (in words): 20 μM. The protocol: In this assay, 250 ng of pBR322 plasmid DNA, different concentrations of the compounds to be tested, 0.1% BSA 1 μL, 10× Topo I buffer, Topo I and add 1× TAE buffer were mixed to a final volume of 20 μL. The reaction was carried out for 30 min at 37 °C in a water bath. After the reaction was terminated, 4 μL of each of the 6× DNA Sampling Buffers were added to the gel. The pBR322 plasmid DNA alone was used as a negative control, and camptothecin was used as a positive control. Finally, the samples were loaded onto the gels and electrophoresed for about 1.5 h. After electrophoresis, the gel blocks were incubated in 1 mg/L ethidium bromide (EB) for 30 min and then visualized on the gel system.

The subject of assay [5] is Cal27. The assay can be described thus: MTT antiproliferative assay, Cal27. In kind it is cell-based, human. The note with it: Homo sapiens, CAL-27, 48 h, mean ± SD. The protocol:
as §1, §2

Assay [6] deals with ACHN. The assay can be described thus: MTT antiproliferative assay, ACHN. In kind it is cell-based, human. The following applies: Homo sapiens, ACHN, 48 h, mean ± SD. The method, then: as §1, §2
The test system of assay [7] is A549. The assay can be described thus: MTT antiproliferative assay, A549. The format is cell-based, human. The note with it: Homo sapiens, A549, 48 h, mean ± SD. The protocol: as §1, §2

Entries after “also recorded” stand apart in the source; their conditions may differ. A value given as a limit tells only on which side of the number the result lay.

In the case of `O=S1(=O)c2ncccc2-c2nc(NCCN3CCCC3)c3ccccc3c21` [7ac, 5-((2-(Pyrrolidin-1-yl)ethyl)amino)pyrido[3′,2′:4,5] thieno[3,2-c]isoquinoline 11,11-dioxide], the IC50 (commonly the concentration that gives 50% inhibition) in assay [1] worked out at 15.2 ± 3.41 µM; in assay [2], 12 ± 4.2 µM; in assay [3], 14.2 ± 2.77 µM; in assay [5] it was 14.6 ± 2.12 µM; in assay [6] it was 16.9 ± 3.27 µM; in assay [7], 9.69 ± 2.08 µM. Further, the “nicked DNA in the lane (DNA breakage)” value in assay [4] is given as “nicked DNA could be clearly observed”.

Consider `CN(C)CCCNc1nc2c(c3ccccc13)S(=O)(=O)c1ncccc1-2` [7af, 5-((3-(Dimethylamino)propyl)amino)pyrido[3′,2′:4,5] thieno[3,2-c]isoquinoline 11,11-dioxide], for which the IC50 in assay [1] is 9.84 ± 1.32 µM; in assay [2], 64.5 ± 2.88 µM; in assay [3], above 100 µM; in assay [5] it was 10.6 ± 0.96 µM; in assay [6], 14.7 ± 0.15 µM; in assay [7] it was 13.8 ± 2.53 µM. Moreover, the “nicked DNA in the lane (DNA breakage)” value in assay [4] was “nicked DNA could be clearly observed”.

`CCN(CC)CCCNc1nc2c(c3ccccc13)S(=O)(=O)c1ncccc1-2` [7ag, 5-((3-(Diethylamino)propyl)amino)pyrido[3′,2′:4,5] thieno[3,2-c]isoquinoline 11,11-dioxide]: the 50% inhibitory concentration (IC50) in assay [1] worked out at 24.37 ± 0.18 µM; in assay [2], 57.8 ± 0.65 µM; in assay [3], 75.8 ± 2.79 µM; in assay [5], 22.5 ± 1.84 µM; in assay [6], 26.9 ± 0.72 µM; in assay [7], 30 ± 0.31 µM. In addition, the “nicked DNA in the lane (DNA breakage)” value in assay [4] is “nicked DNA could be clearly observed”.

Turning to `O=S1(=O)c2ncccc2-c2nc(NCCCN3CCCC3)c3ccccc3c21` [7ah, 5-((3-(Pyrrolidin-1-yl)propyl)amino)pyrido[3′,2′:4,5] thieno[3,2-c]isoquinoline 11,11-dioxide], the IC50 in assay [1] is 19.5 ± 0.87 µM; in assay [2] it was 42.7 ± 2.28 µM; in assay [3], above 100 µM; in assay [5], 23.1 ± 2.48 µM; in assay [6], 13 ± 1.24 µM; in assay [7], 27.7 ± 1.49 µM. Further, the “nicked DNA in the lane (DNA breakage)” value in assay [4] is reported as “nicked DNA could be clearly observed”.

Consider `NCCCNc1nc2c(c3ccccc13)S(=O)(=O)c1ncccc1-2` [7ak, 5-((3-Aminopropyl)amino)pyrido[3′,2′:4,5]thieno[3,2-c]isoquinoline 11,11-dioxide], for which the IC50 was 10.2 ± 1.61 µM in assay [1]; 56.6 ± 3.25 µM in assay [2]; above 100 µM in assay [3]; 10.6 ± 1.32 µM in assay [5]; 7.94 ± 3.26 µM in assay [6]; 52 ± 1.49 µM in assay [7]. Also, in assay [4], the “nicked DNA in the lane (DNA breakage)” value is “nicked DNA could be clearly observed”.

Consider `Cc1cc(C)c2c(n1)S(=O)(=O)c1c-2nc(NCCN(C)C)c2ccccc12` [7ba, 5-((2-(Dimethylamino)ethyl)amino)-7,9-dimethylpyrido[3′,2′:4,5]thieno[3,2-c]isoquinoline 11,11-dioxide], for which the IC50 in assay [1] was 6.33 ± 0.75 µM; in assay [2] it was 6.68 ± 1.5 µM; in assay [3], 4.66 ± 1.69 µM; in assay [5] it was 4.99 ± 2 µM; in assay [6], 4.59 ± 1.68 µM; in assay [7], 7.03 ± 1.95 µM. In assay [4], the “Topo I inhibitory activity (in words)” value is reported as “potent Topo I activity”.

Turning to `CCN(CC)CCNc1nc2c(c3ccccc13)S(=O)(=O)c1nc(C)cc(C)c1-2` [7bb, 5-((2-(Diethylamino)ethyl)amino)-7,9-dimethylpyrido[3′,2′:4,5]thieno[3,2-c]isoquinoline 11,11-dioxide], the half-inhibitory concentration (IC50) in assay [1] was 6.02 ± 1.59 µM; in assay [2] it was 7.68 ± 0.88 µM; in assay [3] it was 3.57 ± 0.35 µM; in assay [5], 4.89 ± 2.41 µM; in assay [6], 5.66 ± 0.54 µM; in assay [7], 7.54 ± 2.07 µM. In assay [4], the “Topo I inhibitory activity (in words)” value is listed as “weak Topo I activity”.

For `Cc1cc(C)c2c(n1)S(=O)(=O)c1c-2nc(NCCN2CCCC2)c2ccccc12` [7bc, 7,9-Dimethyl-5-((2-(pyrrolidin-1-yl)ethyl)amino) pyrido[3′,2′:4,5]thieno[3,2-c]isoquinoline 11,11-dioxide], the IC50 is 6.44 ± 0.76 µM in assay [1]; 9.57 ± 2.07 µM in assay [2]; 8.17 ± 3.36 µM in assay [3]; 3.36 ± 0.83 µM in assay [5]; 6.41 ± 1.41 µM in assay [6]; 5.47 ± 0.82 µM in assay [7]. Further, the “Topo I inhibitory activity (in words)” value in assay [4] is listed as “potent Topo I activity”.

As for `Cc1cc(C)c2c(n1)S(=O)(=O)c1c-2nc(NCCN2CCOCC2)c2ccccc12` [7bd, 7,9-Dimethyl-5-((2-morpholinoethyl)amino)pyrido[3′,2′:4,5]thieno[3,2-c]isoquinoline 11,11-dioxide], the IC50 in assay [1], in assay [2], in assay [3], in assay [5], in assay [6] and in assay [7] was above 100 µM in each case. In assay [4], the “Topo I inhibitory activity (in words)” value is recorded as “weak Topo I activity”.

As for `Cc1cc(C)c2c(n1)S(=O)(=O)c1c-2nc(NCCCN(C)C)c2ccccc12` [7bf, 5-((3-(Dimethylamino)propyl)amino)-7,9-dimethylpyrido[3′,2′:4,5]thieno[3,2-c]isoquinoline 11,11-dioxide], the IC50 was 8.44 ± 2.86 µM in assay [1]; 5.07 ± 1.92 µM in assay [2]; 5.14 ± 1.55 µM in assay [3]; 5.2 ± 1.2 µM in assay [5]; 6.67 ± 1.49 µM in assay [6]; 6.25 ± 2.23 µM in assay [7]. In assay [4], the “Topo I inhibitory activity (in words)” value is reported as “potent Topo I activity; also recorded: weak Topo I activity”.

In the case of `CCN(CC)CCCNc1nc2c(c3ccccc13)S(=O)(=O)c1nc(C)cc(C)c1-2` [7bg, 5-((3-(Diethylamino)propyl)amino)-7,9-dimethyl-pyrido[3′,2′:4,5]thieno[3,2-c]isoquinoline 11,11-dioxide], the concentration for half-maximal inhibition (IC50) was 6.23 ± 1.96 µM in assay [1]; 6.92 ± 2.01 µM in assay [2]; 4.38 ± 0.46 µM in assay [3]; 6.35 ± 3.28 µM in assay [5]; 6.89 ± 2.86 µM in assay [6]; 6.54 ± 0.52 µM in assay [7]. Besides, in assay [4], the “Topo I inhibitory activity (in words)” value is “weak Topo I activity”.

As to `Cc1cc(C)c2c(n1)S(=O)(=O)c1c-2nc(NCCCN2CCCC2)c2ccccc12` [7bh, 7,9-Dimethyl-5-((3-(pyrrolidin-1-yl)propyl)amino)-pyrido[3′,2′:4,5]thieno[3,2-c]isoquinoline 11,11-dioxide], the concentration for half-maximal inhibition (IC50) in assay [1] came out at 4.83 ± 0.67 µM; in assay [2] it was 4.79 ± 0.4 µM; in assay [3], 3.83 ± 0.14 µM; in assay [5], 3.47 ± 0.84 µM; in assay [6], 5.9 ± 1.45 µM; in assay [7] it was 4.84 ± 0.74 µM. The “Topo I inhibitory activity (in words)” value in assay [4] was “potent Topo I activity”. For the same compound, the “concentration at which the activity of Topo I was fully inhibited” value in assay [4] (different concentrations) came to 40 µM.

Consider `Cc1cc(C)c2c(n1)S(=O)(=O)c1c-2nc(NCCCN2CCOCC2)c2ccccc12` [7bi, 7,9-Dimethyl-5-((3-morpholinopropyl)amino)-pyrido[3′,2′:4,5]thieno[3,2-c]isoquinoline 11,11-dioxide], for which the 50% inhibitory concentration (IC50) in assay [1] is above 100 µM; in assay [2] it was 73.68 ± 0.67 µM; in assay [3], 87.4 ± 2.65 µM; in assay [5], 20.3 ± 2.89 µM; in assay [6], above 100 µM; in assay [7], 80.5 ± 2.44 µM. In assay [4], the “Topo I inhibitory activity (in words)” value is “weak Topo I activity”.

Source of the values: publication PMC11858653, “Design, Synthesis and Bioactive Evaluation of Topo I/c-MYC Dual Inhibitors to Inhibit Oral Cancer via Regulating the PI3K/AKT/NF-κB Signaling Pathway” (Molecules, 2025).
